According to patent US7022484B2, “Methods for treating neuropathological states and neurogenic inflammatory states and methods for identifying compounds useful therein” (Board of Regents, The University of Texas System, priority 2000, dated 2006):
“Also recorded” adds a separate entry of the source.

Experiments:
[1] = test system: rat arthritis model; assay: Knee joint circumference and joint temperature in kaolin/carrageenan knee joint inflammation model; format: in vivo; details: 4 hours after kaolin/carrageenan; spinal pre-treatment
Procedure: (§1) An acute inflammatory response restricted to the knee joint can be induced by the injection of 3% kaolin and 3% carrageenan (in sterile saline; 0.1 ml; pH 7.4) into the joint cavity while the animal is briefly anesthetized with sodium methohexital (Brevital, 60 mg/kg, i.p.). Kaolin and carrageenan were obtained from Fisher Scientific, St. Louis, Mo. The knee joint is flexed manually until the rat awakes (approximately 5–10 minutes). In this arthritis model in the awake rat, localized joint swelling, as well as limping and guarding of the limb, are well developed at 4 hours (Sluka et al., Pain, 59, 95–100 (1994)) when behavioral testing begins.
Knee joint circumference is measured in centimeters (cm) with a flexible tape measure around the center of the knee joint while the joint is held in extension as done with patients in the clinical setting as an indication of increases in joint volume. The knee joints of anesthetized rats are measured before (baseline) and four hours following injection of the knee joint with kaolin and carrageenan.
Temperature readings were documented numerically with a temperature probe after the rat is reanesthetized with sodium pentobarbital (50 mg/kg, i.p.) just prior to perfusion with aldehydes for histological preservation. Comparative temperature differences were made between the baseline temperature and the temperature four hours after induction of inflammation.

[2] = test system: TNFα; assay: TNFα release by ELISA from SW982 synovial cells treated with NMDA and ACPD; format: cell-based, human; details: 24 hours, NMDA (5 mM) and ACPD (5 mM), K252a (100 nM)
Procedure: The cultured cell lines used in these studies were the human neuroblastoma clonal line, SHSY5Y, and the human synovial sarcoma clonal line, SW982, both available through the American Tissue Type Culture Collection (item number CRL 2266 and HTB-93, respectively). Cells were grown in Dulbecco's Modification of Eagles Medium (DMEM) without L-glutamine, with 4.5 grams/Liter glucose, and with 10% bovine fetal serum in a tissue culture incubator at 37° C. in a gaseous mixture of O2/CO2. Cells were routinely split as necessary to maintain proper cell density. Cells were removed from plates by adding TRYPSIN/EDTA in Hank's Balanced Salt solution. After cell counts, approximately 10,000 cells were plated per well in a culture dish. For experiments, the cells were plated into 35 mm Petri dishes or 6- or 24-well plates as needed.
For detection of released Tumor Necrosis Factor alpha (TNFα) and some western blot experiments, cells were exposed to the two glutamate agonists NMDA (5 mM) and ACPD (5 mM), in the presence or absence of the tyrosine kinase inhibitors Genistein […] or K252a (100 nM). […]
The release of the inflammatory mediator and initiator of inflammatory cascades, TNFα was measured by ELISA using a commercially available kit (R&D Quantikine, Catalog Number DTA50) specific for human TNFα. […]

[3] = test system: NMDA currents; details: patch clamp studies; cited from earlier work
[4] = test system: rat arthritis model; assay: Paw withdrawal latency (PWL) to radiant heat in rat kaolin/carrageenan knee joint inflammation model; format: in vivo
Procedure: All studies followed the guidelines of the Institute Animal Care and Use Committee, in accordance with the guidelines of the National Institutes of Health. All animals were hosted in a room with a constant ambient temperature of 22° C. and 12 hour light/dark cycle with free access to food and water. Eighty-five Sprague-Dawley rats (250–300 grams) total were used in experiments conducted for biochemical, behavioral, and immunocytochemistry studies. […] On Day 2 baseline behavioral testing was followed by infusion of agents for 1.5 hours (pretreatment) prior to induction of knee joint inflammation under brief anesthesia. Behavioral testing was repeated 4 hours after induction of joint inflammation. Anesthetized animals were either transcardially perfused with aldehydes for immunohistochemical studies or fresh, frozen tissues collected for biochemical studies.
A microdialysis fiber was implanted into the spinal dorsal horn of anesthetized rats (sodium pentobarbital, 50 mg/kg) one day prior to the induction of arthritis according to the procedure of Skilling et al. (J. Neurochem., 51:127–132 (1988)), as described in Sluka et al. (Neurosci. Lett., 145:141–144 (1992)). Briefly, a small midline incision was made in the skin over the T12 vertebral level. The vertebrae were cleared of muscle and two 1 millimeter (mm) holes were drilled in the lateral aspect of both sides of the T12 vertebrae to expose the L4 spinal segment. A microdialysis fiber ([…], 45,000 MW cut-off, Hospal, AN69, Hospal Industrie, Meyzieu, France), was passed transversely across the deep dorsal horn and stabilized with dental cement. The microdialysis fiber was then passed through the holes in the vertebrae and transversely through the dorsal horn of the spinal cord. A 2 mm section of the microdialysis fiber lies in the dorsal horn at the level of L3–4 segment. The tubing was coated with epoxy except for a permeable portion passing through the spinal grey matter. The microdialysis fiber was connected to PE20 tubing (Becton Dickinson and Company, San Mateo, Calif.) which was tunneled under the skin to the nape of the neck. Alternatively as a systemic control for drug administration, the microdialysis fiber was implanted only in the subcutaneous tissue over the back muscle and tunneled to the neck. Artificial cerebrospinal fluid (aCSF) was made as described by Sorkin et al. (J. Neurosci. Methods, 23, 131–138 (1988)) and was infused (5 microliters/minute) for 1.5 hours and then the tube was heat-sealed for use on the following day.
Dose response curves were generated for Genistein with animals receiving Genistein spinally at concentration of 0.2 mM (n=3), 0.5 mM (n=3), 1 mM (n=9), and 2 mM (n=3). Animals received Lavendustin A or B spinally at concentrations of 0.1 mM (n=3), 0.5 mM (n=3), and 1 mM (n=5) as a positive and negative control for Genistein. […] Daidzein was tested at a dose of 1 mM (n=3). […] Eight additional animals received the vehicle, 50% DMSO in aCSF, as a control.
as §1
Fifty-five rats were used for behavioral studies. Four hours after induction of the arthritis, the joint is swollen and increased withdrawal responses to radiant heat and spontaneous guarding of the limb were noted. The increased responsiveness to noxious stimuli indicates the presence of secondary hyperalgesia. […]

O=c1c(-c2ccc(O)cc2)coc2cc(O)cc(O)c12 [Genistein, 5,7-Dihydroxy-3-(4-hydroxyphenyl)-4H-1-benzopyran-4-one; 4′,5,7-trihydroxy-isoflavone]
joint circumference [1]: expected increases | joint temperature [1]: expected increases | NMDA/ACPD-promoted release of TNFα [2]: completely abolished | effect on NMDA currents [3]: decreases NMDA currents | effect on baseline PWL ([4]; after 1.5 hours infusion, before kaolin/carrageenan): did not affect baseline PWL | most effective dose in pre-treatment animals ([4]; concentration inside the microdialysis fiber, spinal administration): 1 mM | PWL decrease induced by knee joint inflammation ([4]; spinal microdialysis pre-treatment 1.5 hours, PWL to radiant heat 4 hours after kaolin/carrageenan): significantly (p<0.05 versus 4 hours vehicle group) attenuated the PWL decreases; also recorded: significantly attenuates the inflammation-induced decrease in PWL | development of secondary hyperalgesia ([4]; spinal microdialysis pre-treatment, 4 hours after induction of arthritis): secondary hyperalgesia did not develop
